The values that follow come from US6638973B2, “Taxane formulations” (FSU Research Foundation, Inc., priority 2000, dated 2003).

The first experiment concerns HCT116 cells. In words: In vitro cytotoxicity measured by the cell colony formation assay. It is filed as cell-based. The conditions noted are these: HCT116 cells, 72 h incubation with drug, colonies counted after 7 days; ID50 = drug concentration producing 50% inhibition of colony formation; read-out: IN VITRO ID 50 (nm) HCT116. The method, boiled down:
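Colony-forming survival was scored 7 days after a 72 h, 37 °C compound exposure followed by washout into fresh medium.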
Regarding `CCOC(=O)O[C@H]1C(=O)[C@@]2(C)C([C@H](OC(=O)c3ccccc3)[C@]3(O)C[C@H](OC(=O)[C@H](O)[C@@H](NC(=O)c4ccco4)c4ccco4)C(C)=C1C3(C)C)[C@]1(OC(C)=O)CO[C@@H]1C[C@@H]2O` (some centres unmarked) [Compound 3911], the IC50 is less than 1 nM.
As to `CCCC(=O)N[C@@H](c1ccco1)[C@@H](O)C(=O)O[C@H]1C[C@@]2(O)[C@@H](OC(=O)c3ccccc3)C3[C@](C)(C(=O)[C@H](OC(=O)OCC)C(=C1C)C2(C)C)[C@@H](O)C[C@H]1OC[C@@]31OC(C)=O` (some centres unmarked) [Compound 3929], the IC50 is less than 1 nM.
Still for that read-out and setting: in the case of `CCOC(=O)O[C@H]1C(=O)[C@@]2(C)C([C@H](OC(=O)c3ccccc3)[C@]3(O)C[C@H](OC(=O)[C@H](O)[C@@H](NC(=O)OC(C)C)c4ccco4)C(C)=C1C3(C)C)[C@]1(OC(C)=O)CO[C@@H]1C[C@@H]2O` (some centres unmarked) [Compound 3963] it was less than 1 nM; in that of `CC=CC(=O)NC(c1ccco1)C(O)C(=O)OC1CC2(O)C(OC(=O)c3ccccc3)C3C4(OC(C)=O)COC4CC(O)C3(C)C(=O)C(OC(=O)OCC)C(=C1C)C2(C)C` (centres unmarked) [Compound 4000], less than 1 nM; in that of `CCOC(=O)N[C@@H](c1ccco1)[C@@H](O)C(=O)O[C@H]1C[C@@]2(O)[C@@H](OC(=O)c3ccccc3)C3[C@](C)(C(=O)[C@H](OC(=O)OCC)C(=C1C)C2(C)C)[C@@H](O)C[C@H]1OC[C@@]31OC(C)=O` (some centres unmarked) [Compound 4020], less than 1 nM.

Staying with this experiment, now noted: HCT116 colony formation; 72 h drug incubation, colonies counted after 7 days; Example 5, C-7 ester/C-10 hydroxy taxanes; read-out: IN VITRO ID 50 (nm) HCT116.
As to `CCC(=O)O[C@H]1C[C@H]2OC[C@@]2(OC(C)=O)C2[C@H](OC(=O)c3ccccc3)[C@]3(O)C[C@H](OC(=O)[C@H](O)[C@@H](NC(=O)c4ccccc4)c4ccco4)C(C)=C([C@@H](O)C(=O)[C@@]21C)C3(C)C` (some centres unmarked) [Compound 4017], the IC50 is less than 10 nM.
On the same count and under the same terms, the result for `CCOC(=O)N[C@@H](c1cccs1)[C@@H](O)C(=O)O[C@H]1C[C@@]2(O)[C@@H](OC(=O)c3ccccc3)C3[C@](C)(C(=O)[C@H](O)C(=C1C)C2(C)C)[C@@H](OC(=O)CC)C[C@H]1OC[C@@]31OC(C)=O` (some centres unmarked) [Compound 4044] reads less than 1 nM.

The same experiment, now with this note: HCT116 colony formation; 72 h drug incubation, colonies counted after 7 days; Example 10, C-10 ester/C-7 hydroxy taxanes; read-out: IN VITRO ID 50 (nm) HCT116.
On to `CC(=O)O[C@@]12CO[C@@H]1C[C@H](O)[C@@]1(C)C(=O)[C@H](OC(=O)C3CC3)C3=C(C)[C@@H](OC(=O)[C@H](O)[C@@H](NC(=O)c4ccco4)c4ccco4)C[C@@](O)([C@@H](OC(=O)c4ccccc4)C12)C3(C)C` (some centres unmarked) [Compound 3866], for which the IC50 is less than 1 nM.
Same read-out and setting: in the case of `CCCC(=O)O[C@H]1C(=O)[C@@]2(C)C([C@H](OC(=O)c3ccccc3)[C@]3(O)C[C@H](OC(=O)[C@H](O)[C@@H](NC(=O)OC(C)C)c4cccs4)C(C)=C1C3(C)C)[C@]1(OC(C)=O)CO[C@@H]1C[C@@H]2O` (some centres unmarked) [Compound 3909] it was less than 1 nM; in that of `CCCC(=O)O[C@H]1C(=O)[C@@]2(C)C([C@H](OC(=O)c3ccccc3)[C@]3(O)C[C@H](OC(=O)[C@H](O)[C@@H](NC(=O)OCC(C)C)c4ccco4)C(C)=C1C3(C)C)[C@]1(OC(C)=O)CO[C@@H]1C[C@@H]2O` (some centres unmarked) [Compound 3957], less than 10 nM.
Same read-out and setting: the result for `C/C=C/C(=O)N[C@@H](c1ccco1)[C@@H](O)C(=O)O[C@H]1C[C@@]2(O)[C@@H](OC(=O)c3ccccc3)C3[C@](C)(C(=O)[C@H](OC(=O)C4CC4)C(=C1C)C2(C)C)[C@@H](O)C[C@H]1OC[C@@]31OC(C)=O` (some centres unmarked) [Compound 3971] reads less than 1 nM; that for `C/C=C/C(=O)N[C@@H](c1ccco1)[C@@H](O)C(=O)O[C@H]1C[C@@]2(O)[C@@H](OC(=O)c3ccccc3)C3[C@](C)(C(=O)[C@H](OC(=O)CC)C(=C1C)C2(C)C)[C@@H](O)C[C@H]1OC[C@@]31OC(C)=O` (some centres unmarked) [Compound 3982], less than 1 nM.
Same read-out and setting: the result for `C/C=C/C(=O)N[C@@H](c1ccco1)[C@@H](O)C(=O)O[C@H]1C[C@@]2(O)[C@@H](OC(=O)c3ccccc3)C3[C@](C)(C(=O)[C@H](OC(=O)CCC)C(=C1C)C2(C)C)[C@@H](O)C[C@H]1OC[C@@]31OC(C)=O` (some centres unmarked) [Compound 3994] reads less than 1 nM; that for `CCOC(=O)N[C@@H](c1cccs1)[C@@H](O)C(=O)O[C@H]1C[C@@]2(O)[C@@H](OC(=O)c3ccccc3)C3[C@](C)(C(=O)[C@H](OC(=O)C4CC4)C(=C1C)C2(C)C)[C@@H](O)C[C@H]1OC[C@@]31OC(C)=O` (some centres unmarked) [Compound 4051], less than 1 nM.
